Test results from patent US8604029B2, “2-[(2-substituted)-indolizin-3-yl]-2-oxo-acetamide derivatives as antifungal agents” (F2G Ltd British Body Corporate, priority 2006, dated 2013).
In brackets after ≈: the same amount, converted by molar mass.

System: Aspergillus fumigatus
Test: MIC measurement, YAG medium
Type: cell-based
Conditions: Aspergillus fumigatus; YAG medium; MIC banded into grades; strain AF293; read-out: MIC A. fumigatus
Protocol: Between 1 and 5 mgs of compound were accurately weighed out into a sterile Eppendorf tube. The compound was dissolved in DMSO to give a solution containing […]. Tubes were stored at −20° C. until required.
On the day of testing thawed solutions were vortex mixed to ensure homogeneity. 30 μL of solution was removed and added to 570 μL of sterile water in a separate sterile Eppendorf. The thoroughly mixed solution was used to prepare a series of doubling dilutions in water, in a deep well plate. Thirteen replicate plates were prepared using a Minitrak by aspirating 20 μL from each well into eleven clear polystyrene 96 well plates.
Spores of Aspergillus spp. (Aspergillus fumigatus [two strains], Aspergillus terreus [two strains], Aspergillus niger and Aspergillus flavus) were harvested from cultures grown on Sabarauds agar for 5 days, and resuspended in PBS/Tween 80 to approx 1×10^7 cfu/mL. Other filamentous fungi (Absidia corymbifera, Fusarium solani, Rhizomucor, Scedosporium spp., Trichophyton spp.), were grown on Sabarauds agar for 2-10 days and spores/hyphae resuspended in PBS/Tween to give approx 1×10^7 cfu/mL. Candida species (Candida albicans, Candida glabrata, Candida krusei, Candida parapsilosis and Candida tropicalis) were grown on Sabarauds agar, cells were harvested from the agar using a sterile loop and resuspended in PBS/Tween 80 to approx 1×10^6 cfu/mL. Each organism suspension was diluted in RPMI medium, containing 2% glucose and 0.135 M MOPS buffer (pH 7.0) to 0.5-2×10^4 cfu/mL for Aspergillus spp. and other filamentous fungi and 0.5-2×10^3 cfu/mL for yeast. 80 μL of an organism suspension was added to each well of the plate containing drug dilutions.
This produced MIC plates with a drug range 50-0.05 mg/L and organism inocula of 1-2×10^4 cfu/mL for Aspergillus spp. and other filamentous fungi and 1-2×10^3 cfu/mL for yeasts. All plates were incubated for 24-48 hrs at 35° C. Growth was assessed by monitoring the optical density at 485 nm for each well. The MIC of a compound is the lowest drug concentration that inhibits growth of an organism by >80% compared with a drug free control. MICs are recorded as mg/L. Other growth media can be used for susceptibility testing, and the activity of the described compounds can also be assessed in a medium comprising 1% glucose, 1% ammonium chloride and 0.5% yeast extract (YAG medium). To perform MIC tests in this medium, dilutions of compounds are prepared in microtitre plates as described above. Fungal strains to be tested are grown and harvested in an identical manner to that described above, each organism suspension is then diluted in YAG medium to 0.5-2×10^4 cfu/mL for Aspergillus spp. and other filamentous fungi and 0.5-2×10^3 cfu/mL for yeast. 80 μL of an organism suspension was added to each well of the plate containing drug dilutions. This produced MIC plates with a drug range 50-0.05 mg/L and organism inocula of 1-2×10^4 cfu/mL for Aspergillus spp. and other filamentous fungi and 1-2×10^3 cfu/mL for yeasts. All plates were incubated for 24 hrs at 35° C. Growth was assessed by monitoring the optical density at 485 nm for each well. The MIC of a compound is the lowest drug concentration that inhibits growth of an organism by >70% compared with a drug free control. MICs are recorded as mg/L. In cases where the MIC of an organism is […] mg/L the MIC is repeated using a concentration range of 0.5-0.0005 mg/L. MIC tests in YAG medium have more clear-cut endpoints and have slightly lower MICs than those performed in RPMI medium.
The following organisms were tested: Absidia corymbifera, Aspergillus flavus, Aspergillus fumigatus AF293 and AF210, Aspergillus niger, Aspergillus terreus AT4 and AT49, Candida albicans, Candida glabrata, Candida krusei, Candida parapsilosis, Candida tropicalis, Fusarium solani, Rhizomucor sp., Scedosporium apiospermum, Scedosporium prolificans, Trichophyton mentagrophytes, and Trichophyton rubrum.

`Cc1cc(C)nc(N2CCN(c3ccc(NC(=O)C(=O)c4c(C5CC5)cc5ccccn45)cc3)CC2)c1` [Example 58, 2-(2-Cyclopropyl-indolizin-3-yl)-N-{4-[4-(4,6-dimethyl-pyridin-2-yl)-piperazin-1-yl]-phenyl}-2-oxo-acetamide] and `Cc1cc(C)nc(N2CCN(c3ccc(NC(=O)C(=O)c4c(C5CCCCC5)cc5ccccn45)cc3)CC2)c1` [Example 60, 2-(2-Cyclohexyl-indolizin-3-yl)-N-{4-[4-(4,6-dimethyl-pyridin-2-yl)-piperazin-1-yl]-phenyl}-2-oxo-acetamide] cannot be ordered by MIC: < 1 µg/mL for the first, < 1 µg/mL for the second.

`Cc1cc(C)nc(N(C)CCN(C)c2ccc(NC(=O)C(=O)c3c(-c4ccccc4)cc4ccccn34)cc2)c1` [Example 55, N-[4-({2-[(4,6-Dimethyl-pyridin-2-yl)-methyl-amino]-ethyl}-methyl-amino)-phenyl]-2-oxo-2-(2-phenyl-indolizin-3-yl)-acetamide] and `Cc1cc(C)nc(N(C)CCNc2ccc(NC(=O)C(=O)c3c(-c4ccccc4)cc4ccccn34)cc2)c1` [Example 78, N-(4-{2-[(4,6-Dimethyl-pyridin-2-yl)-methyl-amino]-ethylamino}-phenyl)-2-oxo-2-(2-phenyl-indolizin-3-yl)-acetamide] cannot be ordered by MIC: < 1 µg/mL for the first, < 1 µg/mL for the second.

`Cc1ccnc(N2CCN(c3ccc(NC(=O)C(=O)c4c(-c5ccccc5)cc5ccccn45)cc3)CC2)c1` [Example 49, N-{4-[4-(4-Methyl-pyridin-2-yl)-piperazin-1-yl]-phenyl}-2-oxo-2-(2-phenyl-indolizin-3-yl)-acetamide] and `Cc1ccc(N2CCN(c3ccc(NC(=O)C(=O)c4c(-c5ccccc5)cc5ccccn45)cc3)CC2)nc1` [Example 74, N-{4-[4-(5-Methyl-pyridin-2-yl)-piperazin-1-yl]-phenyl}-2-oxo-2-(2-phenyl-indolizin-3-yl)-acetamide] cannot be ordered by MIC: < 1 µg/mL for the first, < 1 µg/mL for the second.

Compared with `Cc1nccn1CCCOc1ccc(NC(=O)C(=O)c2c(-c3ccccc3)cc3ccccn23)cc1C(C)C` [Example 20, N-{3-Isopropyl-4-[3-(2-methyl-imidazol-1-yl)-propoxy]-phenyl}-2-oxo-2-(2-phenyl-indolizin-3-yl)-acetamide], `CC(C)c1ncc(C(C)(C)c2ccc(NC(=O)C(=O)c3c(-c4ccccc4)cc4ccccn34)cc2)n1C` [Example 17, N-{4-[1-(2-Isopropyl--3-methyl-3H-imidazol-4-yl)-1-methyl-ethyl]-phenyl}-2-oxo-2-(2-phenyl-indolizin-3-yl)-acetamide] is higher in MIC: 1 to 10 µg/mL (≈ 1.92 to 19.2 µM) for the first, > 10 µg/mL for the second.

Compared with `COCCOc1cc(C)nc(N2CCN(c3ccc(NC(=O)C(=O)c4c(-c5ccccc5)cc5ccccn45)cc3)CC2)c1` [Example 57, N-(4-{4-[4-(2-Methoxy-ethoxy)-6-methyl-pyridin-2-yl]-piperazin-1-yl}-phenyl)-2-oxo-2-(2-phenyl-indolizin-3-yl)-acetamide], `O=C(Nc1ccc(N2CCN(c3cc(OCCO)ccn3)CC2)cc1)C(=O)c1c(-c2ccccc2)cc2ccccn12` [Example 89, N-(4-{4-[4-(2-Hydroxy-ethoxy)-pyridin-2-yl]-piperazin-1-yl}-phenyl)-2-oxo-2-(2-phenyl-indolizin-3-yl)-acetamide] is higher in MIC: < 1 µg/mL for the first, 1 to 10 µg/mL (≈ 1.78 to 17.8 µM) for the second.

`Cc1cc(C)nc(CNc2ccc(NC(=O)C(=O)c3c(-c4ccccc4)cc4ccccn34)cc2)c1` [Example 91, N-{4-[(4,6-Dimethyl-pyridin-2-ylmethyl)-amino]-phenyl}-2-oxo-2-(2-phenyl-indolizin-3-yl)-acetamide] and `Cc1cc(OCCOc2ccc(NC(=O)C(=O)c3c(-c4ccccc4)cc4ccccn34)cc2)cc(C)n1` [Example 71, N-{4-[2-(2,6-Dimethyl-pyridin-4-yloxy)-ethoxy]-phenyl}-2-oxo-2-(2-phenyl-indolizin-3-yl)-acetamide] cannot be ordered by MIC: < 1 µg/mL for the first, < 1 µg/mL for the second.

`COCc1cc(N2CCN(c3cc(C)cc(C)n3)CC2)ccc1NC(=O)C(=O)c1c(-c2ccccc2)cc2ccccn12` [Example 83, N-{4-[4-(4,6-Dimethyl-pyridin-2-yl)-piperazin-1-yl]-2-methoxymethyl-phenyl}-2-oxo-2-(2-phenyl-indolizin-3-yl)-acetamide] and `Cc1cc(C)nc(N2CCN(c3cccc(NC(=O)C(=O)c4c(-c5ccccc5)cc5ccccn45)c3)CC2)c1` [Example 48, N-{3-[4-(4,6-Dimethyl-pyridin-2-yl)-piperazin-1-yl]-phenyl}-2-oxo-2-(2-phenyl-indolizin-3-yl)-acetamide] cannot be ordered by MIC: < 1 µg/mL for the first, < 1 µg/mL for the second.

`O=C(Nc1ccc(NCCOc2ccccn2)cc1)C(=O)c1c(-c2ccccc2)cc2ccccn12` [Example 90, 2-Oxo-2-(2-phenyl-indolizin-3-yl)-N-{4-[2-(pyridin-2-yloxy)-ethylamino]-phenyl}-acetamide] and `O=C(Nc1ccc(N2CCN(c3cccnc3)CC2)cc1)C(=O)c1c(-c2ccccc2)cc2ccccn12` [Example 59, 2-Oxo-2-(2-phenyl-indolizin-3-yl)-N-[4-(4-pyridin-3-yl-piperazin-1-yl)-phenyl]-acetamide] cannot be ordered by MIC: < 1 µg/mL for the first, < 1 µg/mL for the second.

First: Cc1cc(C)nc(N2CCN(c3ccc(NC(=O)C(=O)c4c(C5CCN(C)CC5)cc5ccccn45)cc3)CC2)c1 [Example 63, N-{4-[4-(4,6-Dimethyl-pyridin-2-yl)-piperazin-1-yl]-phenyl}-2-[2-(1-methyl-piperidin-4-yl)-indolizin-3-yl]-2-oxo-acetamide]
Second: Cc1cc(C)nc(N2CCN(c3ccc(NC(=O)C(=O)c4c(C(C)C)cc5ccccn45)cc3)CC2)c1 [Example 61, N-{4-[4-(4,6-Dimethyl-pyridin-2-yl)-piperazin-1-yl]-phenyl}-2-(2-isopropyl-indolizin-3-yl)-2-oxo-acetamide]
The MIC of the first is higher: > 10 µg/mL for the first, < 1 µg/mL for the second.

`Cc1cc(C)nc(N2CCN(c3ccc(NC(=O)C(=O)c4c(-c5ccccc5)cc5ccc(F)cn45)cc3)CC2)c1` [Example 32, N-{4-[4-(4,6-Dimethyl-pyridin-2-yl)-piperazin-1-yl]-phenyl}-2-(6-fluoro-2-phenyl-indolizin-3-yl)-2-oxo-acetamide] and `Cc1cccc(N2CCN(c3ccc(NC(=O)C(=O)c4c(-c5ccccc5)cc5ccccn45)cc3)CC2)n1` [Example 43, N-{4-[4-(6-Methyl-pyridin-2-yl)-piperazin-1-yl]-phenyl}-2-oxo-2-(2-phenyl-indolizin-3-yl)-acetainide] cannot be ordered by MIC: < 1 µg/mL for the first, < 1 µg/mL for the second.

Going from `O=C(Nc1ccc(N2CCC3(CC2)OCCO3)cc1)C(=O)c1c(-c2ccccc2)cc2ccccn12` [Example 23, N-[4-(1,4-dioxa-8-aza-spiro[4.5]dec-8-yl)-phenyl}-2-oxo-2-(2-phenyl-indolizine-3-yl)-acetamide] to `Cc1c(-c2ccccc2)c2ccccn2c1C(=O)C(=O)Nc1ccc(N2CCOCC2)cc1` [Example 7, 2-(2-methyl-1-phenyl-indolizin-3-yl)-N-(4-morpholin-4-yl-phenyl)-2-oxo-acetamide], the MIC rises from < 1 µg/mL to > 10 µg/mL.

`O=C(Nc1ccccc1F)C(=O)c1c(-c2ccccc2)cc2ccc3ccccc3n12` [Example 4, N-(2-fluoro-phenyl)-2-oxo-2-(2-phenyl-pyrrolo[1,2-a]quinolin-1-yl)-acetamide] and `CN1CCN(c2ccc(NC(=O)C(=O)c3c(-c4ccccc4)cc4ccccn34)cc2-c2ncco2)CC1` [Example 19, N-[4-(4-methyl-piperazin-1-yl)-3-oxazol-2-yl-phenyl]-2-oxo-2-(2-phenyl-indolizin-3-yl)-acetamide] cannot be ordered by MIC: > 10 µg/mL for the first, > 10 µg/mL for the second.

In the case of `O=C(Nc1ccc(C(=O)OC2CCOCC2)c(O)c1)C(=O)c1c(-c2ccccc2)cc2ccccn12` [Example 11, 2-hydroxy-4-[2-oxo-2-(2-phenyl-indolizin-3-yl)-acetylamino]-benzoic acid tetrahydro-pyran-4-yl ester], the MIC is reported as < 1 µg/mL.
